Data reported in patent EP0270316A2, “Topical compositions comprising 1-substituted imidazoles and NSAIDs for treatment of acne” (PFIZER INC., priority 1986, dated 1988).
In brackets after ≈: the same amount, converted by molar mass.

Key:
[1] = human skin treated with radiolabeled tioconazole; frozen section autoradiography
Source text: This property is readily measurable by methods known to those skilled in the art such as, for example, skin layer analysis which measures the amount of radiolabeled drug, e.g. tioconazole, in human skin treated with compositions containing the drug. [[…] et al., Brit. J. Dermatol. 115, Suppl. 31, 36-40 (1986)].

P. acnes = test: microbe, parasite or virus in culture; settings: Cutibacterium acnes, read-out: average minimum inhibitory concentration (MIC)

Which results are given for `Clc1ccc(C(Cn2ccnc2)OCc2ccsc2Cl)c(Cl)c1` (centres unmarked) [Tioconazole, 1-[2-[(2-chloro-3-thienyl)methoxy]-2-(2,4-dichlorophenyl)ethyl]-1H-imidazole]?
localization in skin [1]: localized in the sebaceous follicle; MIC (P. acnes): 5 µg/mL (≈ 12.9 µM)
